Here are results for 88 molecules from a melting point compilation (Tetko et al.; mined from patent text by program, amines drawn as free bases though some values may be those of a salt).

A word on the melting point: it is the temperature, or range, at which the solid turns liquid. In turn, `CCOC(=O)c1cccc(-c2nccc(OCCc3ccc(OC)c(OC)c3)n2)c1` gave a melting point of 101 to 102 °C.

Consider `O=C(NC1CCN(CCc2ccc(F)cc2)C1)C12CC3CC(CC(C3)C1)C2` (stereo not drawn), for which the melting point is 114 to 116 °C.

In the case of `NS(=O)(=O)c1ccc(-n2nc(NC(=O)Nc3cccc(C(F)(F)F)c3)cc2-c2ccccc2)cc1`, the melting point fell in the range of 195 to 197 °C.

In turn, `CC(C)(C)OC(=O)Nc1cc2nc(-c3ccccc3)nn2cc1F` came in with a melting point of 180 to 188 °C.

The molecule `CC(=NO)C(C)(C)NN(C)CCNC(C)(C)C(Cn1ccnc1[N+](=O)[O-])=NO` came in with a melting point of 132 to 134 °C.

Turning to `CN1C(C)(C)CC(OC(=O)CCc2cc(-n3nc4ccc(S(=O)(=O)c5ccccc5)cc4n3)c(O)c(C(C)(C)C)c2)CC1(C)C`, the melting point lay in the range of 45 to 52 °C.

Regarding `Cc1cccc(C(=O)NC(C)C)c1NC(=O)c1cc(C(F)(F)F)nn1-c1ncccc1C(F)(F)F`, the melting point was in the range of 227 to 230 °C.

The molecule `COc1cc(O)c(C=NNC(=O)c2cc3ccccc3s2)c(OC)c1` displayed a melting point of 205 °C.

`Cc1cccc2c1N(CC(=O)c1ccccc1O)C(=O)C(NC(=O)Nc1cccc(-c3nnn[nH]3)c1)N=C2c1ccccc1F` (stereo not drawn) registered a melting point of 221 to 225 °C.

`CN1C(=O)CC2(CC1=O)c1ccccc1Oc1ccccc12` came in with a melting point of 148 to 149 °C.

`CC(=O)c1c(C)[nH]c(-c2ccccc2)c1N=Cc1ccc(Cl)cc1` came in with a melting point of 214 to 215 °C.

`COc1ccc(C(=O)Cc2c(Cl)cncc2Cl)c2c(CC(=O)OCc3ccccc3)coc12` showed a melting point of 132 to 133 °C.

`CNC(=O)Cc1ccc(CC(=O)O)cc1` yielded a melting point of 102 to 104 °C.

On to `COc1nc(C(F)(F)F)cc(=O)n1-c1cc(OC(C)=O)c(Cl)cc1F`, for which the melting point fell in the range of 110 to 112 °C.

For the molecule `CC(C)(C)N(Cc1ccccc1)CC(O)c1ccc(OCc2ccccc2)c2[nH]c(CO)cc12` (stereo not drawn), the melting point was determined as 136 °C.

In turn, `Cc1cccc2c1nc(C(C)C)n2Cc1c(F)cccc1F` had a melting point of 151 to 153 °C.

`OCc1ccc2c(c1)ncn2-c1cccc(-c2ccccc2)c1` yielded a melting point of 130 to 131 °C.

Regarding `COC(=O)C[C@@H]1C[C@@H](COc2ccc(-c3ccc(C(=N)NC(=O)OCc4ccccc4)cc3)cc2)N(c2ccccc2)C1=O`, the melting point is 157 to 159 °C.

`COC1=NS(=O)N=C1NCCCCC#CCN1CCCCC1` (stereo not drawn) returned a melting point of 134 to 136 °C.

Molecule `COc1cc(C(=O)C#Cc2ccccc2)cc(OC)c1OC` registered a melting point of 94 to 96 °C.

`O=C(c1ccc(C(=O)N2CC3COCC3C2)cc1)N1CC2COCC2C1` (stereo not drawn) showed a melting point of 192 to 193 °C.

For `COC(=O)CCCCC#Cc1cc(Cl)ccc1N`, the melting point stood at 66 °C.

On to `CNCC(=O)N1N=C(c2ccc(N)cc2)c2cc3c(cc2CC1C)OCO3` (stereo not drawn), for which the melting point is 198 to 200 °C.

`Cc1ccccc1-c1nc(-c2ccccc2Cl)sc1-c1ccc(S(C)(=O)=O)cc1` returned a melting point of 156 to 157 °C.

Molecule `CCCCCCCCCCOc1ccc(OCc2ccccc2)c(C(=O)OC)c1` returned a melting point of 32 to 34 °C.

In the case of `CC(C(=O)O)(c1ccccc1)c1ccc(O)cc1` (stereo not drawn), the melting point is 136 to 137 °C.

Turning to `O=C(c1ccc(Cl)cc1)c1nccc2ccccc12`, the melting point lay in the range of 100 to 101 °C.

Regarding `CC1(C)OC2C=CC(=O)C2O1` (single isomer, unassigned; (+)), the melting point was in the range of 68 to 69 °C.

As for `CCc1nc2c(C(F)(F)F)cccc2c(O)c1C(=O)O`, the melting point is 174 °C.

With `OC(c1ccc(F)cc1)(c1ncc[nH]1)c1ccc(Cl)cc1Cl` (stereo not drawn), the melting point came to 194 °C.

In turn, `CN(C)CCCc1cccc(OCCCNc2nc(N)nn2C)c1` came in with a melting point of 64 to 65.5 °C.

Molecule `CCC(CC)Oc1cc(C)nc2c1nc(C)c(=O)n2-c1c(C)cc(C)cc1C` displayed a melting point of 215 to 217 °C.

On to `COc1c(C2CCN(CCCCNC(=O)c3ccc(-c4ccc(Cl)cc4)c(OCC(N)=O)c3)CC2)ccc2c1CCCC2`, for which the melting point is 198 °C.

Consider `CN(C)S(=O)(=O)NC1CCC(CCN2CCC(c3cccc4c3CCO4)CC2)CC1` (stereo not drawn), for which the melting point was found to be 122 °C.

`CC(S)C(=O)NCCS` (stereo not drawn) displayed a melting point of 53 °C.

Take `O=C(Nc1cccc(S(=O)(=O)NC2CC2)c1)c1cnn2c(C(F)F)cc(-c3ccc(Cl)cc3)nc12`: the melting point amounted to 262 °C.

`COc1ccc(C(=O)CCCCCBr)cc1F` gave a melting point of 47 to 48 °C.

Turning to `CNc1nnnn1-c1ccccc1C(=O)O`, the melting point is 152 to 154 °C.

Molecule `CS(=O)c1ccc(C(=O)CCCCC#N)cc1` (stereo not drawn) had a melting point of 89.5 to 91.5 °C.

As to `O=Cc1c(Cl)cc(Cl)cc1-c1ccc(F)cc1`, the melting point was 73 to 74 °C.

In turn, `COc1ccc(C(=O)Nc2c(Cl)cncc2Cl)c2c1oc1ccc(NCC(=O)O)cc12` had a melting point of over 260 °C.

Take `C[C@H](CN(O)C(N)=O)NC(=O)c1cccc(Oc2ccccc2)c1`: the melting point was found to be 154 °C.

As to `O=C(CCc1cnoc1-c1ccc(Cl)cc1)Nc1cccnc1`, the melting point lay in the range of 197 to 198 °C.

Take `Cn1c(=O)n(C)c2cc3c(N4CCN(C(=O)Nc5ccc([N+](=O)[O-])cc5)CC4)ncnc3cc21`: the melting point is 299 to 300 °C.

Turning to `CCCOc1ccc(S(=O)(=O)N2CCN(C)CC2)cc1-c1nc2cc(N)c([N+](=O)[O-])cc2c(=O)[nH]1`, the melting point lay in the range of 270 to 271 °C.

On to `Brc1cnc2c(c1)ncn2-c1cccc(-n2ccnc2)c1`, for which the melting point is 236 to 238 °C.

Turning to `Cc1noc(-c2c(C)nc(C#Cc3ccccc3)n2C)n1`, the melting point was determined as 95 °C.

On to `OC1c2cc(OCc3ccc4ccccc4n3)ccc2OCC1Oc1ccccc1` (stereo not drawn), for which the melting point fell in the range of 151 to 153 °C.

The molecule `CCN1CCCC1CNC(=O)c1c(O)c(Cl)cc(Cl)c1OC` (single isomer, unassigned; (-)) returned a melting point of 48 to 49 °C.

Molecule `CCN(Cc1ccccc1)C(=O)Cn1c2cccc(OCc3ccccc3)c2c2c(COC)c(C(=O)OC(C)C)ncc21` registered a melting point of 142 to 144 °C.

For `CCOc1nc(Cc2ccc(Cl)cc2)nc(O)c1NC(=O)c1ccco1`, the melting point lay in the range of 91.5 to 92.5 °C.

Turning to `Cc1ccc2c(Cl)ccnc2c1NC(=O)c1c(Cl)cccc1Cl`, the melting point was 202 to 205 °C.

`O=C(Nc1cccc2c(O)cccc12)c1ccc(F)c([N+](=O)[O-])c1` showed a melting point of 235 to 238 °C.

Turning to `COC(=O)c1ccc2c(c1)C(=O)NC(C(Cl)(Cl)Cl)O2` (stereo not drawn), the melting point fell in the range of 218 to 220 °C.

In the case of `CC(=O)Oc1cc2c(c3ccccc13)Nc1ccccc1S2`, the melting point lay in the range of 184 to 185 °C.

`O=c1[nH]c(=Cc2ccco2)c(=O)[nH]c1=Cc1ccc(OCc2ccccc2)cn1` showed a melting point of 256 to 257 °C.

In turn, `CC(C)(SCC(=O)O)c1ccc2c(c1)OCO2` returned a melting point of 78.5 to 80 °C.

Turning to `CN(C)CCCOc1ccc2c(=O)c3ccc(OCCCN(C)C)cc3oc2c1`, the melting point was 69 to 70 °C.

On to `CS(=O)(=O)C(=C1CN(C(c2ccccc2)c2ccccc2)C1)c1cccc(Cl)c1`, for which the melting point came out at 205 °C.

For `CC(C)(Oc1ccc(C#N)cc1)C(O)=Cc1ccncn1`, the melting point is 115 to 117 °C.

In turn, `CC(C)(C)c1ccc(C[C@@H](C(=O)O)[C@@H](O)c2ccc(F)cc2)cc1` (racemic) showed a melting point of 102 to 104 °C.

Regarding `NNC(=O)c1cccc(Cc2c[nH]cn2)c1O`, the melting point stood at 190 °C.

On to `COC(=O)c1nn(-c2ccc(Cl)cc2Cl)c(-c2ccc(Cl)cc2)c1C`, for which the melting point stood at 133 °C.

As to `CCOC(=O)CC1=NN(c2ccc(C(=O)O)cc2)C(=O)C1`, the melting point was determined as 246 °C.

Consider `CCOC(=O)c1ncn2c1CNc1ccccc1-2`, for which the melting point lay in the range of 248 to 250 °C.

For `CC(O)c1c[nH]c(-c2ccccc2)n1` (stereo not drawn), the melting point is 197 to 198 °C.

`COCn1c(-c2nc3c(OC)ccc(N4CCOCC4)c3s2)nc2ccc(C3CCNC3)nc21` (stereo not drawn) yielded a melting point of 120 to 130 °C.

On to `O=[N+]([O-])c1ccc(C(O)c2ccccn2)c(OCC(F)(F)F)c1` (stereo not drawn), for which the melting point lay within 119 to 123 °C.

`CCOC(=O)c1c(-c2ccc(N3CCN(C)CC3)cc2)n(C)n(-c2ccc(C#N)cc2)c1=O` returned a melting point of 278 to 280 °C.

Consider `N[C@@H](CCC(=O)O)C(=O)N[C@@H](Cc1ccccc1)C(=O)OCc1ccccc1`, for which the melting point lay within 103 to 104 °C.

Consider `CC(C)(C)c1cc(C(C)(C)C)c(O)c(S(=O)(=O)Nc2ccc([N+](=O)[O-])cc2Cl)c1`, for which the melting point lay in the range of 158 to 161 °C.

For the molecule `CC(C)C(O)c1cccc(S(N)(=O)=O)c1` (stereo not drawn), the melting point lay within 152 to 153 °C.

With `CC1(C)COC(=O)C1=O`, the melting point fell in the range of 61 to 64 °C.

For `COC(=O)CN(NC(N)=O)c1ccc(OC)c(C)c1`, the melting point was in the range of 174 to 176 °C.

The molecule `CC1COc2c(N3CCC(CN)C3)c(F)cc3c(=O)c(C(=O)O)cn1c23` (stereo not drawn) returned a melting point of 213 to 216 °C.

On to `Cc1cc(C)c([N+](=O)[O-])cc1NC(=O)CC#N`, for which the melting point fell in the range of 229 to 230 °C.

`ONC(=S)C=Cc1cccc2ccccc12` showed a melting point of 129 to 130 °C.

Turning to `COC=C(C(=O)OC)c1ccccc1C#CC1=CCN(c2ccc(Cl)cc2)O1`, the melting point was 107 to 110 °C.

Turning to `CCOC(=O)c1c(C(F)(F)F)nc(C(F)F)c(C(=O)OC)c1NC(C)C`, the melting point lay within 53 to 55 °C.

`C=C1c2c(C)c(OCc3ccccc3)c(C)c(C)c2OC1(C)C` gave a melting point of 55 to 57 °C.

Turning to `Cc1ccc2ccc(=O)oc2c1C`, the melting point lay in the range of 122 to 123 °C.

Take `CCCCCCCCCCCCS(=O)(=O)CCOc1ccc(C/C=C(\OC(=O)CC)C(F)(F)F)cc1`: the melting point lay in the range of 60 to 63 °C.

Consider `CC(=Cc1ccc(Oc2ccc(Cl)cc2)cc1)[N+](=O)[O-]`, for which the melting point lay within 69 to 71 °C.

`CCC(=CC(CNC(=O)c1cccnc1Cl)=NO)C(C)[N+](=O)[O-]` (stereo not drawn): the melting point was in the range of 131 to 136 °C.

In turn, `O=[N+]([O-])c1cccc(/C=C/c2nc(C3CCCCCCC3)cs2)c1` gave a melting point of 64 to 65 °C.

In the case of `CCCc1c(OCCCCc2ccc3c(Cl)c(OC)c(OC)c(Cl)c3c2)ccc(C(=O)O)c1O`, the melting point was 181 to 182 °C.

On to `N#Cc1nc2ccccc2n(-c2ccc(Cl)cc2)c1=O`, for which the melting point was 232 to 235 °C.

Turning to `CC1(C)CC(O)CC(C)(C)N1CC(O)CO` (stereo not drawn), the melting point fell in the range of 97 to 99 °C.
